Laboratory results as given in patent US20190374533A1, “COMPOUNDS AND METHODS FOR INHIBITING NHE-MEDIATED ANTIPORT IN THE TREATMENT OF DISORDERS ASSOCIATED WITH FLUID RETENTION OR SALT OVERLOAD AND GASTROINTESTINAL TRACT DISORDERS” (Ardelyx, Inc., priority 2008, published 2019).
Structures can show the parent of a compound that is named as a salt. Where two headings read alike, the source gives them in different places.

Legend:
[1] = tested on: gastrointestinal motility; test: Restoration of gastrointestinal motility in opioid induced constipation (loperamide); type: in vivo, mice; conditions: 15 mg/kg oral gavage, loperamide s.c., Evans Blue dye front after 30 minutes
rat NHE-3 = target: T1, rat NHE-3 (Rattus norvegicus, UniProt P26433); test: Cell-based assay of NHE-3 activity (Pharmacological Test Example 1); conditions: OK cells expressing rat NHE-3; 0-30 uM test compound, 5 uM EIPA; read-out: rat NHE-3 Average pIC50 (converted)
T1 construct: expressed in transfected cells; host or cells: Opossum kidney (OK) cells (ATCC), electroporated
Method in brief: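 OK cells electroporated with rat NHE-3, loaded with 5 uM BCECF-AM in NH4Cl-HEPES (pH 7.4) for 30 min at room temperature, then acid-loaded 10 min in Na+-free choline buffer. Na+-dependent H+ antiport read as initial rate of pH-dye change; pIC50 from 3-6 replicate averages.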

[2] = Determination of compound remaining in feces; type: in vivo, rat; conditions: 0.1 mg/kg oral gavage; for recovery in 72-hour fecal samples: three rats; for dose excreted: Sprague-Dawley, rat, faeces, po, 0.1 mg/kg, read-out: % Recovery ± SD from 72-hour fecal samples
Experimental: Sprague-Dawley rats were orally gavaged with test article. A low dose of compound (0.1 mg/kg) was selected so that feces would remain solid and practical to collect. For both Examples 202 and 203, three rats were dosed, and following dosage of compounds, the rats were placed in metabolic cages for 72 hours. After 72 hours, fecal samples were recovered and dried for 48 hours. Dried fecal samples were ground to a powdered from, and for each rat, 10 replicates of 50 mg samples were extracted with acetonitrile. Insoluble materials were removed by centrifugation and supernatants analyzed by LC/MS/MS and compared against a standard curve to determine compound concentration. The amount of compound actually dosed was determined by LC/MS/MS analysis of the dosing solutions. The total amount of compound present in the 72-hour fecal samples was compared to the total amount of compound dosed, and reported as percentage of total dose recovered.

[3] = tested on: absorption of sodium from the intestinal lumen; test: Inhibition of intestinal sodium absorption in mice; type: in vivo, mouse; conditions: CD-1 mice, 15 mg/kg oral gavage twice daily for 3 days
[4] = tested on: absorption of sodium from the intestinal lumen; test: Inhibition of intestinal sodium absorption in rats; type: in vivo, rat; conditions: Sprague Dawley rats, 0.1 mg/kg oral gavage, 13-hours post-dose
Experimental: Urinary sodium excretion and fecal form were measured to assess the ability of selected example compounds to inhibit the absorption of sodium from the intestinal lumen. Eight-week old, male, Sprague Dawley rats were purchased from Envigo (Livermore, Calif.), were housed 2 per cage and acclimated for at least 48 hours before study initiation. Animals were fed Harlan Teklad Global TD.160470 rodent chow (Maddison, Wis.), standard laboratory rodent chow Harlan Teklad Global 2018 with the addition of 0.4% inorganic phosphorous. […] At 13-hours post-dose, urine samples were collected and fecal form was assessed. In addition, the weight of food consumed over the 13-hour period was measured and recorded. Fecal forms were scored according to a common scale associated with increasing fecal water to the wettest observation in the cage's collection funnel (1, normal pellet; 2, pellet adhering to sides of collection funnel due to moisture; 3, loss of normal pellet shape: 4, complete loss of shape with a blotting pattern; 5, liquid fecal streams evident). Fecal form score (FFS) was calculated for each group as the median of each individual rat's FFS within the group and reported in Table 12. Fecal samples were dried using a lyophilizer for at least 3 days, following which dry weight was recorded and fecal fluid content was calculated based on the difference between the wet and dry stool weights. […]

[5] = day 3, normalized to dietary sodium intake

T1 sequence (P26433 29-831): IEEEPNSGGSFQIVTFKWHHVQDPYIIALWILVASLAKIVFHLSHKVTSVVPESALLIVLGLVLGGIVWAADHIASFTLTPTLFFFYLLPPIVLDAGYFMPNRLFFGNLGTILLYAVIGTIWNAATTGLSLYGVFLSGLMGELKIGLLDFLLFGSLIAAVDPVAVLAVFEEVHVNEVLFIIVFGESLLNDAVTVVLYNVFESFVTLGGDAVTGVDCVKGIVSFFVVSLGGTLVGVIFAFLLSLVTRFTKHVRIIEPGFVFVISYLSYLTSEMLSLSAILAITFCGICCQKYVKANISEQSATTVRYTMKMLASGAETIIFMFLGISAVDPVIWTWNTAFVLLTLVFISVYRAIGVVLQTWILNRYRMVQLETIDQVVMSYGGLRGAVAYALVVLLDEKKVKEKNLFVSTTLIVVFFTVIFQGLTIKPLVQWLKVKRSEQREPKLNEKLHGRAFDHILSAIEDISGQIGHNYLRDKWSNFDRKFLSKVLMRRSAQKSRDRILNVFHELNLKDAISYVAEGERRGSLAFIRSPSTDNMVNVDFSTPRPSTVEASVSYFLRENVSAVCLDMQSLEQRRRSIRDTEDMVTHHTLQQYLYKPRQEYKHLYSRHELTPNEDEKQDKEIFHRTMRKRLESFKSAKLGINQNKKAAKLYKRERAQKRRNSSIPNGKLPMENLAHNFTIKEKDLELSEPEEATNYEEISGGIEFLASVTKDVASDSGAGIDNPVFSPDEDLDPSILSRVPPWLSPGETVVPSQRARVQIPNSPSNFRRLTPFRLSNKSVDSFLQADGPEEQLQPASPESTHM

Compound | % Restoration of Transit [1] | IC50 (rat NHE-3) [nM] | recovery in 72-hour fecal samples [2] | dose excreted ([2]; Rat 1) [%] | dose excreted ([2]; Rat 2) [%] | dose excreted ([2]; Rat 3) [%] | Fecal fluid content (Δ from vehicle) ([3]; day 3) | Fecal Na Excretion (% of vehicle) [3, 5] | Urinary Na Excretion (% of vehicle) [3, 5] | Urinary Na (% of Vehicle, out/in) ([4]; normalized to dietary sodium intake) | FFS (1-5) ([4]; fecal form score, group median)
CN1Cc2c(Cl)cc(Cl)cc2[C@H](c2cccc(S(=O)(=O)NCCOCCOCCNC(=O)NCCCCNC(=O)NCCOCCOCCNS(=O)(=O)c3cccc([C@@H]4CN(C)Cc5c(Cl)cc(Cl)cc54)c3)c2)C1 (single isomer, unassigned) [Example 202, (S or R)—N,N′-(10,17-dioxo-3,6,21,24-tetraoxa-9,11,16,18-tetraazahexacosane-1,26-diyl)bis(3-((S)-6,8-dichloro-2-methyl-1,2,3,4-tetrahydroisoquinolin-4-yl)benzenesulfonamide) bis-hydrochloride salt] | C (>40%) | < 100 | near quantitative recovery | 93.8 ± 11.8 | 90.5 ± 5.5 | 92.4 ± 10.6 |  |  |  |  | 
CN1Cc2c(Cl)cc(Cl)cc2[C@H](c2cccc(S(=O)(=O)NCCOCCOCCNC(=O)Nc3ccc(NC(=O)NCCOCCOCCNS(=O)(=O)c4cccc([C@@H]5CN(C)Cc6c(Cl)cc(Cl)cc65)c4)cc3)c2)C1 (single isomer, unassigned) [Example 203, (S or R)—N,N′-(2,2′-(2,2′-(2,2′-(1,4-phenylenebis(azanediyl))bis(oxomethylene)bis(azanediyl)bis(ethane-2,1-diyl))bis(oxy)bis(ethane-2,1-diyl))bis(oxy)bis(ethane-2,1-diyl))bis(3-((S or R)-6,8-dichloro-2-methyl-1,2,3,4-tetrahydroisoquinolin-4-yl)benzenesulfonamide) bis-hydrochloride salt] |  | < 100 | near quantitative recovery | 100 ± 6.7 | 75.8 ± 8.2 | 104 ± 7.1 | C (>10) | C (>200%) | C (<50%) | C (<40%) | 3
